Assay results published in patent US10308608B2, “Histone deacetylase inhibitors” (BIOMARIN PHARMACEUTICAL INC., priority 2015, dated 2019).
Where a name gives a salt, the structure may show the parent alone. Read-outs that look alike come from different tables or passages of the source.

Test system: Frataxin (FXN) mRNA
Experiment: Effect of HDAC inhibitors on frataxin (FXN) mRNA expression, qRT-PCR in compound-treated iPSC derived neuronal cells
Type: cell-based
Details: iPSC, 24 h
Experimental: Effect of HDAC Inhibitors on Frataxin (FXN) mRNA Expression
Method: mRNA quantification of compound-treated iPSC derived neuronal cells Neuronal stem cells were cultured in Neurobasal A medium (Life technologies #10888022) supplemented with N2, B27 (Life technologies #17502-048 and #17504-044), L-glutamine (Life technologies #25030081), supplemented with 20 ng/ml EGF (R&D Systems #236-EG) and 20 ng/ml bFGF (BioPioneer # HRP-0011). Neuronal differentiation was initiated by removing growth factors and culturing cells in Neurobasal A with N2 and B27. Cells were allowed to differentiate for 16 days. HDAC inhibitory compound was then added and incubate for 24 h. RNA isolation was performed using the RNeasy Plus mini kit (QIAgen #74134) using a QIAcube instrument per manufacturer's instructions. qRT-PCR was performed using qScript One-Step SYBR Green qRT-PCR Kit (Quanta Biosciences 170-8893BR) with the following conditions: 20 minutes at 50° C., 5 minutes at 95° C., and then 40 cycles of 20 seconds at 95° C., 20 seconds at 55° C., 30 seconds at 72° C. The primer sequences to detect expression of FXN were: 5′-[…]-3′ and 5′-[…]-3′.
The data for the following compounds, for FXN mRNA fold induction at a compound concentration of 0.625 μM are shown in Table 1, where A<1, 1<B<2, 2<C<3, 3<D<5, E>5.

[1] = compound concentration of 0.625 μM, 24 h incubation, read-out: FXN mRNA fold induction
[2] = read-out: FXN mRNA fold induction, compound concentration of 0.625 μM, 24 h incubation

Nc1ccccc1NC(=O)c1ccc(NC2CNC2)cc1 [Compound 86, N-(2-aminophenyl)-4-(azetidin-3-ylamino)benzamide trihydrochloride]
fold induction at 0.625 µM [1]: 2 to 3

CN1CC(Nc2ccc(C(=O)Nc3ccccc3N)cc2)C1 [Compound 87, N-(2-aminophenyl)-4-((1-methylazetidin-3-yl)amino)benzamide tris(2,2,2-trifluoroacetate)]
fold induction at 0.625 µM [1]: 2 to 3

CC(C)CN1CC(Nc2ccc(C(=O)Nc3ccccc3N)cc2)C1 [Compound 88, N-(2-aminophenyl)-4-((1-isobutylazetidin-3-yl)amino)benzamide trihydrochloride]
fold induction at 0.625 µM [1]: 1 to 2

CC(C)(O)CN1CC(Nc2ccc(C(=O)Nc3ccccc3N)cc2)C1 [Compound 89, N-(2-aminophenyl)-4-((1-(2-hydroxy-2-methylpropyl)azetidin-3-yl)amino)benzamide]
fold induction at 0.625 µM [1]: 1 to 2

CC(C)(C)CN1CC(Nc2ccc(C(=O)Nc3ccccc3N)cc2)C1 [Compound 90, N-(2-aminophenyl)-4-((1-neopentylazetidin-3-yl)amino)benzamide]
fold induction at 0.625 µM [1]: 2 to 3

Nc1ccccc1NC(=O)c1ccc(NC2CN(CC3CC3)C2)cc1 [Compound 91, N-(2-aminophenyl)-4-((1-(cyclopropylmethyl)azetidin-3-yl)amino)benzamide trihydrochloride]
fold induction at 0.625 µM [1]: 1 to 2

CC1(CN2CC(Nc3ccc(C(=O)Nc4ccccc4N)cc3)C2)CC1 [Compound 92, N-(2-aminophenyl)-4-((1-((1-methylcyclopropyl)methyl)azetidin-3-yl)amino)benzamide]
fold induction at 0.625 µM [1]: 2 to 3

Nc1ccccc1NC(=O)c1ccc(NC2CN(CC3CCCCC3)C2)cc1 [Compound 93, N-(2-aminophenyl)-4-((1-(cyclohexylmethyl)azetidin-3-yl)amino)benzamide]
fold induction at 0.625 µM [1]: 2 to 3

Nc1ccccc1NC(=O)c1ccc(N[C@H]2CCNC2)cc1 [Compound 94, (S)-N-(2-aminophenyl)-4-(pyrrolidin-3-ylamino)benzamide trihydrochloride]
fold induction at 0.625 µM [1]: 1 to 2

CN1CC[C@H](Nc2ccc(C(=O)Nc3ccccc3N)cc2)C1 [Compound 95, (S)-N-(2-aminophenyl)-4-((1-methylpyrrolidin-3-yl)amino)benzamide]
fold induction at 0.625 µM [1]: 1 to 2

CC(C)CN1CC[C@H](Nc2ccc(C(=O)Nc3ccccc3N)cc2)C1 [Compound 96, (S)-N-(2-aminophenyl)-4-((1-isobutylpyrrolidin-3-yl)amino)benzamide]
fold induction at 0.625 µM [1]: 1 to 2

CC(C)(O)CN1CC[C@H](Nc2ccc(C(=O)Nc3ccccc3N)cc2)C1 [Compound 97, (S)-N-(2-aminophenyl)-4-((1-(2-hydroxy-2-methylpropyl)pyrrolidin-3-yl)amino)benzamide]
fold induction at 0.625 µM [1]: 1 to 2

CC(C)(C)CN1CC[C@H](Nc2ccc(C(=O)Nc3ccccc3N)cc2)C1 [Compound 98, (S)-N-(2-aminophenyl)-4-((1-neopentylpyrrolidin-3-yl)amino)benzamide trihydrochloride]
fold induction at 0.625 µM [1]: 2 to 3

Nc1ccccc1NC(=O)c1ccc(N[C@H]2CCN(CC3CC3)C2)cc1 [Compound 99, (S)-N-(2-aminophenyl)-4-((1-(cyclopropylmethyl)pyrrolidin-3-yl)amino)benzamide trihydrochloride]
fold induction at 0.625 µM [1]: 2 to 3

CC1(CN2CC[C@H](Nc3ccc(C(=O)Nc4ccccc4N)cc3)C2)CC1 [Compound 100, (S)-N-(2-aminophenyl)-4-((1-((1-methylcyclopropyl)methyl)pyrrolidin-3-yl)amino)benzamide]
fold induction at 0.625 µM [1]: 1 to 2

Nc1ccccc1NC(=O)c1ccc(N[C@H]2CCN(CC3CCCCC3)C2)cc1 [Compound 101, (S)-N-(2-aminophenyl)-4-((1-(cyclohexylmethyl)pyrrolidin-3-yl)amino)benzamide]
fold induction at 0.625 µM [1]: 2 to 3

Nc1ccccc1NC(=O)c1ccc(N[C@@H]2CCNC2)cc1 [Compound 102, (R)—N-(2-aminophenyl)-4-(pyrrolidin-3-ylamino)benzamide Trihydrochloride]
fold induction at 0.625 µM [1]: 2 to 3

CN1CC[C@@H](Nc2ccc(C(=O)Nc3ccccc3N)cc2)C1 [Compound 103, (R)-N-(2-aminophenyl)-4-((1-methylpyrrolidin-3-yl)amino)benzamide]
fold induction at 0.625 µM [1]: 1 to 2

CC(C)CN1CC[C@@H](Nc2ccc(C(=O)Nc3ccccc3N)cc2)C1 [Compound 104, (R)-N-(2-aminophenyl)-4-((1-isobutylpyrrolidin-3-yl)amino)benzamide trihydrochloride]
fold induction at 0.625 µM [1]: 2 to 3

CC(C)(O)CN1CC[C@@H](Nc2ccc(C(=O)Nc3ccccc3N)cc2)C1 [Compound 105, (R)-N-(2-aminophenyl)-4-((1-(2-hydroxy-2-methylpropyl)pyrrolidin-3-yl)amino)benzamide trihydrochloride]
fold induction at 0.625 µM [1]: 2 to 3

CC(C)(C)CN1CC[C@@H](Nc2ccc(C(=O)Nc3ccccc3N)cc2)C1 [Compound 106, (R)-N-(2-aminophenyl)-4-((1-neopentylpyrrolidin-3-yl)amino)benzamide]
fold induction at 0.625 µM [1]: 2 to 3

Nc1ccccc1NC(=O)c1ccc(N[C@@H]2CCN(CC3CC3)C2)cc1 [Compound 107, (R)-N-(2-aminophenyl)-4-((1-(cyclopropylmethyl)pyrrolidin-3-yl)amino)benzamide trihydrochloride]
fold induction at 0.625 µM [1]: 2 to 3

CC1(CN2CC[C@@H](Nc3ccc(C(=O)Nc4ccccc4N)cc3)C2)CC1 [Compound 108, (R)-N-(2-aminophenyl)-4-((1-((1-methylcyclopropyl)methyl)pyrrolidin-3-yl)amino)benzamide]
fold induction at 0.625 µM [1]: 2 to 3

Nc1ccccc1NC(=O)c1ccc(N[C@@H]2CCN(CC3CCCCC3)C2)cc1 [Compound 109, (R)-N-(2-aminophenyl)-4-((1-(cyclohexylmethyl)pyrrolidin-3-yl)amino)benzamide]
fold induction at 0.625 µM [1]: 2 to 3

Nc1ccccc1NC(=O)c1ccc(NC2CCNCC2)cc1 [Compound 110, dihydrochloride]
fold induction at 0.625 µM [1]: 2 to 3

CN1CCC(Nc2ccc(C(=O)Nc3ccccc3N)cc2)CC1 [Compound 111, N-(2-aminophenyl)-4-((1-methylpiperidin-4-yl)amino)benzamide]
fold induction at 0.625 µM [1]: 1 to 2

CC(C)CN1CCC(Nc2ccc(C(=O)Nc3ccccc3N)cc2)CC1 [Compound 112, N-(2-aminophenyl)-4-((1-isobutylpiperidin-4-yl)amino)benzamide trihydrochloride]
fold induction at 0.625 µM [1]: 1 to 2

CC1(CN2CCC(Nc3ccc(C(=O)Nc4ccccc4N)cc3)CC2)CC1 [Compound 113, N-(2-aminophenyl)-4-((1-((1-methylcyclopropyl)methyl)piperidin-4-yl)amino)benzamide trihydrochloride]
fold induction at 0.625 µM [1]: 2 to 3

Nc1ccccc1NC(=O)c1ccc(NC2CCN(CC3CCCCC3)CC2)cc1 [Compound 114, N-(2-aminophenyl)-4-((1-(cyclohexylmethyl)piperidin-4-yl)amino)benzamide]
fold induction at 0.625 µM [1]: 1 to 2

Nc1ccccc1NC(=O)c1ccc(NC2CC3CCC(C2)N3)cc1 (stereo not shown) [Compound 115, 4-((8-azabicyclo[3.2.1]octan-3-yl)amino)-N-(2-aminophenyl)benzamide]
fold induction at 0.625 µM [2]: 1 to 2

CN1C2CCC1CC(Nc1ccc(C(=O)Nc3ccccc3N)cc1)C2 (stereo not shown) [Compound 116, N-(2-aminophenyl)-4-((8-methyl-8-azabicyclo[3.2.1]octan-3-yl)amino)benzamide trihydrochloride]
fold induction at 0.625 µM [2]: 2 to 3

CC(C)CN1C2CCC1CC(Nc1ccc(C(=O)Nc3ccccc3N)cc1)C2 (stereo not shown) [Compound 117, N-(2-aminophenyl)-4-((8-isobutyl-8-azabicyclo[3.2.1]octan-3-yl)amino)benzamide]
fold induction at 0.625 µM [2]: 2 to 3

CC(C)(O)CN1C2CCC1CC(Nc1ccc(C(=O)Nc3ccccc3N)cc1)C2 (stereo not shown) [Compound 118, N-(2-aminophenyl)-4-((8-(2-hydroxy-2-methylpropyl)-8-azabicyclo[3.2.1]octan-3-yl)amino)benzamide]
fold induction at 0.625 µM [2]: 2 to 3

CC(C)(C)CN1C2CCC1CC(Nc1ccc(C(=O)Nc3ccccc3N)cc1)C2 (stereo not shown) [Compound 119, N-(2-aminophenyl)-4-((8-neopentyl-8-azabicyclo[3.2.1]octan-3-yl)amino)benzamide]
fold induction at 0.625 µM [2]: 2 to 3

Nc1ccccc1NC(=O)c1ccc(NC2CC3CCC(C2)N3CC2CC2)cc1 (stereo not shown) [Compound 120, N-(2-aminophenyl)-4-((8-(cyclopropylmethyl)-8-azabicyclo[3.2.1]octan-3-yl)amino)benzamide trihydrochloride]
fold induction at 0.625 µM [2]: 1 to 2

Nc1ccccc1NC(=O)c1ccc(NC2CC3CCC(C2)N3CC2CCCCC2)cc1 (stereo not shown) [Compound 122, N-(2-aminophenyl)-4-((8-(cyclohexylmethyl)-8-azabicyclo[3.2.1]octan-3-yl)amino)benzamide]
fold induction at 0.625 µM [2]: 2 to 3

Nc1ccccc1NC(=O)c1ccc(OC2CCCN(C3CC3)CC2)cc1 (stereo not shown) [Compound 123, N-(2-aminophenyl)-4-((1-cyclopropylazepan-4-yl)oxy)benzamide benzamide dihydrochloride]
fold induction at 0.625 µM [1]: 1 to 2
